Patent US20210293825A1, “METHODS FOR PRECISION THERAPEUTIC TARGETING OF HUMAN CANCER CELL MOTILITY AND KITS THEREOF” (UNITED STATES GOVERNMENT AS REPRESENTED BY THE DEPARTMENT …, priority 2018, published 2021)

What was measured:
20 phosphatases = test: PhosphataseProfiler assay platform (Millipore); type: biochemical; conditions: competition with substrate protein
Text: Kinase assay system #3. KinaseProfiler™ and PhosphataseProfiler™ assay platforms (Millipore). This platform is radiometric-based (considered gold standard). It measures competition with respect to ATP for kinases and substrate protein for phosphatases. Most proteins were expressed via an insect-based system, and it evaluates a panel of 284 kinases and 20 phosphatases. […] Important negative findings include: MKK4, MKK6, p38 MAPK, MAPKAPK2, RAF1, ERK, MEK1, JNK1, 2 and 3, and numerous other MAPK cascade-associated kinases.

PC3-luc cells = test: Prostate cancer intracardiac injection bone metastasis model; type: in vivo, athymic mice
Description: Athymic mice were given intracardiac (IC) injections of PC3-luc cells on day 0 under ultrasound guidance, and underwent weekly IVIS imaging starting seven days post injection. Cohorts of N=20 control, N=20 Pre (treatment from 3 days prior to IC injection through end of experiment), N=10 Pre7Stop (treatment from 3 days prior to IC injection through 7 days post IC injection) and N=10 Post treatment (treatment from 3 days post-IC injection through end of experiment) mice were dosed with 80 mg/kg KBU2046 daily by oral gavage and mock treated with vehicle all other times. FIG. 3c depicts whole body and FIG. 3b depicts mandible flux as determined from weekly IVIS imaging. […] Arrows denote areas of bone destruction in controls, and corresponding areas in the Pre mouse. Student's t test (b-c) and Fisher's exact test (d) P values between the denoted cohorts are shown.
Prostate cancer: intracardiac (IC) injection. IC injection of 4.0×10^5 PC3-Luc cells into male 6-8 week old athymic mice with IVIS imaging was performed as described (Chu, K. et al., Mol Cancer Res 6, 1259-67 (2008)), and was done so under ultrasound guidance (FIG. 15). Mice were treated pre- and/or post-IC injection, as indicated. The pretreatment cohort emulates a metastasis naïve model wherein cell motility is required in order for cells to invade into a distant organ, in this case the jaw bone, for which this model is widely used. If KBU2046 were inhibiting cell motility, then in this model it would act to inhibit metastasis formation. In contrast, with the post implantation cohort, cells have already completed invasion into the jaw bone, and distant metastasis have been established. […] IVIS imaging was performed 30 minutes after IC injection to confirm systemic distribution of cells, and thereafter weekly for 4 weeks starting seven days post injection, allowing real time tracking of metastasis development and growth. Computed Tomograpgy (CT) (Inveon, Seimens) radiographic imaging was performed on some mice, as indicated, and resultant images analyzed in a blinded fashion using Inveon Research Workplace 4.2 visualization/analysis software and ImageJ. […] Experimental groups were randomly assigned to cages prior to the initiation of the study. CT images were analyzed in a blinded fashion to determine total bone loss using both the Invenon Research Workplace 4.2 visualization/analysis software and ImageJ. Specifically, to assess bone loss in an unbiased manor, an operator randomly loaded images into the system and blocked out identifying information prior to analysis by two separate blinded individuals.

HSP90β = molecular target: T1, HSP90β (Homo sapiens, UniProt P08238); test: Biophysical binding assays and DARTS, isolated HSP90β; conditions: ITC, thermal shift, biolayer interferometry, dynamic light scattering, DARTS
T1 construct: made in house; host or cells: Rosetta BL-21 E. coli
Description: (§1) Studies used purified recombinant HSP90β or CDC37. […] For DARTS assay, HSP90β or CDC37 were individually pre-incubated with KBU2046, thermolysin added, and reaction products were separated by SDS PAGE and visualized by silver stain (depicted above). NTco—no thermolysin control. However, when the DARTS assay was conducted with both HSP90β and CDC37 present, KBU2046 protected both proteins from degradation in a concentration-dependent manner (see, FIG. 5a).
(§2) DARTS provides a sensitive measure of ligand-induced changes in protein structure and dynamics by measuring the ability of a ligand to protect its target from protease digestion (Lomenick, B. et al., Proc Natl Acad Sci USA 106, 21984-9 (2009)). […] The intensity of the CDC37 band increased, that of the HSP90β degradation product decreased, and both effects were statistically significant, concentration-dependent and were evident at 10 nM. […] Further, these findings also indicate that KBU2046 is not acting as a classical HSP90 inhibitor.
(§3) Biophysical and Biochemical Binding Assays. […]

CDC37 = molecular target: T2, CDC37 (Homo sapiens, UniProt Q16543); test: Biophysical binding assays and DARTS, isolated CDC37; conditions: ITC, thermal shift, biolayer interferometry, dynamic light scattering, DARTS
T2 construct: made in house; host or cells: BL-21 DE-3 E. coli, pET15b
Description: as §1, §2, §3

[1] = molecular target: T3, HSP90β/CDC37 heterocomplexes (Homo sapiens, UniProt P08238+Q16543); test: DARTS assay with HSP90β and CDC37 combined; type: binding
T3 construct: made in house; host or cells: E. coli (Rosetta BL-21 for HSP90B, BL-21 DE-3 for CDC37)
Description: Equimolar amounts of HSP90β and CDC37 protein were pre-incubated with KBU2046, and resultant thermolysin reaction products were detected by silver stain following SDS-PAGE.
as §2
Biophysical and Biochemical Binding Assays. Fluorescent thermal shift (Krishna, S. N. et al., PLoS One 8, e81504 (2013)), isothermal titration calorimetry (Chavez, J. D. et al., Mol Cell Proteomics 12, 1451-67 (2013)), and biolayer interferometry assays (Makowska-Grzyska, M. et al., Biochemistry 51, 6148-63 (2012)), were performed using MEK4EE (37-399, S257E, T261E) cloned into pMCSG7 and KRX Competent E. coli cells (Promega Inc.) and full-length HSP90B and CDC37 vectors and Rosetta BL-21 and BL-21 DE-3 competent E. coli cells, respectively. […]

[2] = Pre cohort, 80 mg/kg daily oral gavage

T3 sequence (P08238 whole entry): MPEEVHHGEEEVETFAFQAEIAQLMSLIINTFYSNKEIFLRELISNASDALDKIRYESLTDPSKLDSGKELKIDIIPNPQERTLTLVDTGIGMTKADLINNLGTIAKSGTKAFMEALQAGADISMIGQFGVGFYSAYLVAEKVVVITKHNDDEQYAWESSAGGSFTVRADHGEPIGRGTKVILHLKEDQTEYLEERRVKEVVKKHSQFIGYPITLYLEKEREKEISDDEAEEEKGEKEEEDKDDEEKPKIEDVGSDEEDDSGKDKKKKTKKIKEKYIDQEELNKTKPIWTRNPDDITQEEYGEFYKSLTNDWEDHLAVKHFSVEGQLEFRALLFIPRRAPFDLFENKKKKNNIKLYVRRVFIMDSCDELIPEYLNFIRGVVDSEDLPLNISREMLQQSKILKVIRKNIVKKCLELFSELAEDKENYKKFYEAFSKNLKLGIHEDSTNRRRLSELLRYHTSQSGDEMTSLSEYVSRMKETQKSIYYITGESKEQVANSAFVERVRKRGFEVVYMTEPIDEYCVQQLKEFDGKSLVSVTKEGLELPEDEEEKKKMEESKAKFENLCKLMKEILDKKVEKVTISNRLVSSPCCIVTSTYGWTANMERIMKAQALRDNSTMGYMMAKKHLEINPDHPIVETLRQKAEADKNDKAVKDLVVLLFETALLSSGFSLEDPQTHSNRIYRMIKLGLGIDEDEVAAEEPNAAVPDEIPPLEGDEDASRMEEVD
T3 sequence (Q16543 whole entry): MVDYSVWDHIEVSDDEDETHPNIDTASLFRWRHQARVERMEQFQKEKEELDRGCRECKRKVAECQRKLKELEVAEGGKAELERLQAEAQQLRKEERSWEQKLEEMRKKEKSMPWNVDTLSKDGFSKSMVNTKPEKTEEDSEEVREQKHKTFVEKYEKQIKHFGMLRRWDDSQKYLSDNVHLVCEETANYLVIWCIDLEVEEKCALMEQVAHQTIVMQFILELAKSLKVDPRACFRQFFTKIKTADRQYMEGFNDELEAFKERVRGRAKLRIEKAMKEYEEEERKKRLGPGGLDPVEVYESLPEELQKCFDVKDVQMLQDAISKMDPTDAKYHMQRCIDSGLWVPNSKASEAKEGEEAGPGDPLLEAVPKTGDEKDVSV
T1 sequence (P08238 whole entry): as the sequence (P08238 whole entry) above
T2 sequence (Q16543 whole entry): as the sequence (Q16543 whole entry) above

With `O=C1c2ccccc2OCC1c1ccc(F)cc1` (racemic) [KBU2046, (±)-3(4-fluorophenyl)chroman-4-one] the “inhibition of phosphatase activity” value (20 phosphatases) was “No evidence supports inhibition of phosphatase activity”, the “metastasis to the total body and to the jaw” value (PC3-luc cells; Post cohort, treatment from 3 days post-IC injection) was “do not differ from control mice” and the jaw metastasis (PC3-luc cells; Pre7Stop cohort) was “jaw metastasis is significantly decreased compared to control”. The total body metastasis (PC3-luc cells; Pre7Stop cohort, compared to control and Post cohorts) was “total body metastasis is significantly decreased”, the “metastasis to the mandible” value (PC3-luc cells; [2]) was “decreased metastasis to the mandible” and the “total metastatic burden (whole body flux)” value (PC3-luc cells; [2]) was “significant decrease in total metastatic burden”. The “destruction of bone (mandible, Computed Tomography)” value (PC3-luc cells; Pre cohort, week 4) was “decreased destruction of bone”, the “binding to HSP90β” value (HSP90β) was “no evidence of KBU2046 binding” and the “binding to CDC37” value (CDC37) was “no evidence of KBU2046 binding”. For the same molecule, the “concentration at which effects on CDC37 and HSP90β bands were evident” value ([1]; concentration-dependent) was 10 nM and the “protection from thermolysin digestion” value ([1]; equimolar HSP90β and CDC37) was “protected both proteins from digestion”.
